Reference: patent US7741359B2, “Hydrogen sulfide derivatives of non-steroidal anti-inflammatory drugs” (Antibe Therapeutics Inc., priority 2006, dated 2010)
“Also recorded” adds a separate entry of the source.

Assays:
COX-1 [1] = biological target: T1, COX-1 (Homo sapiens, UniProt P23219); assay: Human whole blood thromboxane B2 synthesis in vitro; type: cell-based; details: FIG. 12; for inhibition of COX-1 activity (thromboxane B2 synthesis by human blood): 0.1, 0.3, 1 or 3 μM, 45 min 37° C.
T1 construct: from tissue; host or cells: human whole blood from healthy volunteers
T1 sequence (P23219 24-599): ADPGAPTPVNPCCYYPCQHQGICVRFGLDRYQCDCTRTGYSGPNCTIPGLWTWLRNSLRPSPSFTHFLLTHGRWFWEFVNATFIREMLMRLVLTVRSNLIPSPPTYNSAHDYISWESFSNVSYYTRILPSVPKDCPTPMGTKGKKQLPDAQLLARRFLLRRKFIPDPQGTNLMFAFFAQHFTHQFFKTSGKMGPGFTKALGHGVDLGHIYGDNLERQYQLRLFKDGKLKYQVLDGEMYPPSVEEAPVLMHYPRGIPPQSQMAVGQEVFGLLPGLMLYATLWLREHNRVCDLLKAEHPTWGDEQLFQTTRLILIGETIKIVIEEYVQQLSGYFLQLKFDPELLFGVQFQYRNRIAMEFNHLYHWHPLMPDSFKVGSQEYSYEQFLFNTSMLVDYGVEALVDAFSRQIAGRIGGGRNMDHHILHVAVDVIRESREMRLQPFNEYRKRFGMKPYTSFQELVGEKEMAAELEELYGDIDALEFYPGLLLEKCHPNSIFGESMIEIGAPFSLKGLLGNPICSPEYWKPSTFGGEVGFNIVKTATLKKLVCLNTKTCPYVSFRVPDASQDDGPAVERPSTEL
Description: Aliquots (0.5 mL) of blood from healthy human volunteers were added to glass tubes containing 10 uL of methanol alone, or one of the test drugs prepared such that the final concentration would be 0.1, 0.3, 1 or 3 μM. The tubes were placed in water bath (37° C.) with gentle shaking for 45 min, after which they were centrifuged (1,000×g) for 10 minutes. The concentration of thromboxane B2 in each sample was then determined using a specific ELISA, as in the studies shown in FIG. 4.

[2] = Incidence of gastric damage at the end of the leukocyte adherence experiment; details: intragastric 30 μmol/kg; for Percent Incidence of Gastric Damage: end of experiment
Description: Briefly, post-capillary mesenteric venules in anesthetized rats are examined under a light microscope. […] All test compounds were prepared in a vehicle of 1% carboxymethylcellulose. Changes in leukocyte adherence within the venule were recorded with a video camera attached to the microscope, and quantification of the numbers of adherent leukocytes was performed in a blind manner through evaluation of the videotaped images. Each group consisted of 5 male, Wistar rats weighing 150-175 g. A leukocyte was considered “adherent” if it remained stationary for 30 seconds or more (results below are expressed as the mean ± SEM). At the end of the experiment the stomach was opened and examined for the presence of gastric damage, under a dissecting microscope.

[3] = Healing of acetic acid-induced gastric ulcers; type: in vivo, rat
Description: Gastric ulcers were induced via serosal application of acetic acid, as described by Elliott et al., A nitric oxide-releasing nonsteroidal anti-inflammatory drug accelerates gastric ulcer healing in rats. Gastroenterology 1995; 109: 524-530. […] After 4 days of such treatment, the rats were euthanized and the stomach was excised and photographed. The area (in mm^2) of the ulcer was determined planimetrically by an individual unaware of the treatments given to the rats. In a subgroup of 5 rats euthanized 3 days after induction of gastric ulcers (i.e., prior to initiation of drug treatment), the mean surface area of the ulcers was 24±2 mm^2.

COX-1 [4] = biological target: T2, COX-1 (Rattus norvegicus, UniProt Q63921); assay: Whole blood thromboxane B2 synthesis of treated rats (inhibition of COX-1); type: in vivo
T2 construct: whole blood thromboxane synthesis, which occurs via COX-1; from tissue; host or cells: rat whole blood (ex vivo clotting after oral dosing)
T2 sequence (Q63921 27-602): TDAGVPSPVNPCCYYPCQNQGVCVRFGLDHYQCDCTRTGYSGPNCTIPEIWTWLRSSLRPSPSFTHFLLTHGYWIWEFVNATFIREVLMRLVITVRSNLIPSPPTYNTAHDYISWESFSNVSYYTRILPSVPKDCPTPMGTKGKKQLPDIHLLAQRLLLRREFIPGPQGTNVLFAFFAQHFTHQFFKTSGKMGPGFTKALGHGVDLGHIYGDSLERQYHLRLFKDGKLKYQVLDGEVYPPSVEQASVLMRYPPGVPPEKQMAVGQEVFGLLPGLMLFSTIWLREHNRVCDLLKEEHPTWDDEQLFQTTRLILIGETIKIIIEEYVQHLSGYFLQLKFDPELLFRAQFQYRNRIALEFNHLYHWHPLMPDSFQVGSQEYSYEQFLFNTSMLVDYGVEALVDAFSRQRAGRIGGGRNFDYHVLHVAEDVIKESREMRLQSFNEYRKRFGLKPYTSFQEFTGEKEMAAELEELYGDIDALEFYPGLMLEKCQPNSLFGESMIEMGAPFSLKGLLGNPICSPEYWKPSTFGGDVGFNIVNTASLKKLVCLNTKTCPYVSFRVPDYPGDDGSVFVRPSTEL
Description: Inhibition of COX-1 was also measured using the same rats. […] The samples were then centrifuged for 3 min at 9,000 g and the supernatant was frozen at −80° C. for subsequent measurement of thromboxane B2 concentrations using a specific ELISA.
Inhibition of COX-1 was also measured using the same rats, using the same method as described for FIG. 4. […]

COX-2 = biological target: T3, COX-2 (Rattus norvegicus, UniProt P35355); assay: Rat airpouch assay, exudate PGE2 after zymosan (inhibition of COX-2 in vivo)
T3 construct: from tissue; host or cells: rat subcutaneous airpouch (in vivo, zymosan-induced inflammation)
T3 sequence (P35355 18-604): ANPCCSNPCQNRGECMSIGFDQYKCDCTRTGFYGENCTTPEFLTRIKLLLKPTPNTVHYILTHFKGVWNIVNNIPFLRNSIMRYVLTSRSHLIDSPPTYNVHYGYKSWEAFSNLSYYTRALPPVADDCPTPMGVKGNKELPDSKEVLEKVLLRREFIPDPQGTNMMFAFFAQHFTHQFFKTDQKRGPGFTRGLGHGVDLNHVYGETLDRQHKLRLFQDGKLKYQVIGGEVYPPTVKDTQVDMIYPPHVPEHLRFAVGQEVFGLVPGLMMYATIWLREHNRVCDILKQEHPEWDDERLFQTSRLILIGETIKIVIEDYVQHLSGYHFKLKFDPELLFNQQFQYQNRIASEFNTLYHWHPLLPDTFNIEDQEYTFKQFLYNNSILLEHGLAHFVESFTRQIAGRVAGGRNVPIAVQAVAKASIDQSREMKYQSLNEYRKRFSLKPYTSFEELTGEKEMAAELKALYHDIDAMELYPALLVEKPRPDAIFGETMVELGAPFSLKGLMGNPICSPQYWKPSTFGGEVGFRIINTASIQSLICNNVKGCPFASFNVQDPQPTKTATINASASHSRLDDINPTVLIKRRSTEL
Description: Briefly, a subcutaneous “pouch” is created by repeated injections of air over several days. Once established, inflammation in the pouch can be induced by injection of 1 mL of 1% zymosan. […] Another group of 5 rats was treated with the vehicle, but received an injection of 0.9% sterile saline into the pouch rather than zymosan. […]
Each group consisted of 5 rats.

[5] = test system: gastric prostaglandin E2 (PGE2) synthesis (COX-1 and/or COX-2); assay: Gastric prostaglandin E2 (PGE2) synthesis in excised rat gastric tissue; type: in vivo; details: oral; doses equimolar to diclofenac 20 mg/kg; tissue taken 3 h after administration; FIG. 2
Description: Briefly, the tissue samples were minced with scissors for 30 min, then placed in 1 mL of sodium phosphate buffer (pH 7.4) and placed in a shaking water bath (37° C.) for 20 min.

[6] = Carrageenan hindpaw edema model; type: in vivo, rat; details: 30 min prior to carrageenan
Description: Male, Wistar rats weighing 175-200 g were given the test compounds orally 30 min prior to subplantar injection of 100 ul of 1% lambda carrageenan. Paw volume measured using an Ugo Basile hydroplethysmometer prior to carrageenan injection and at 1-h intervals thereafter for 5 h.

[7] = Small intestinal injury after repeated administration; details: 50 μmol/kg at time 0, 12 and 24 hours; assessed 24 h after final dose; FIG. 5
[8] = Hematocrit before and after repeated administration; type: in vivo, rat; details: 50 μmol/kg at time 0, 12 and 24 hours; start versus 24 h after final dose; FIG. 6
Description: Another group of rats received vehicle (1% carboxymethylcellulose).

[9] = Systolic blood pressure in hypertensive (L-NAME) rats; details: 30 μmol/kg intraperitoneal bolus; recorded for 60 minutes; FIG. 14
[10] = Gastric damage (gastric damage score) in rats after oral dosing; details: rats fasted 18 h; oral; doses equimolar to diclofenac 20 mg/kg; 3 h after administration; FIG. 1
[11] = test system: leukocyte adherence to the vascular endothelium; assay: Leukocyte adherence to the vascular endothelium, intravital microscopy of mesenteric venules; details: intragastric 30 μmol/kg; for Number of Adherent Leukocytes: mean ± SEM
Description: Briefly, post-capillary mesenteric venules in anesthetized rats are examined under a light microscope. […] All test compounds were prepared in a vehicle of 1% carboxymethylcellulose. Changes in leukocyte adherence within the venule were recorded with a video camera attached to the microscope, and quantification of the numbers of adherent leukocytes was performed in a blind manner through evaluation of the videotaped images. Each group consisted of 5 male, Wistar rats weighing 150-175 g. A leukocyte was considered “adherent” if it remained stationary for 30 seconds or more (results below are expressed as the mean ± SEM).

COc1ccc2c(c1)c(CC(=O)Oc1ccc(C(N)=S)cc1)c(C)n2C(=O)c1ccc(Cl)cc1 [Compound XIX, [1-(4-Chloro-benzoyl)-5-methoxy-2-methyl-1-H-indol-3-yl]-acetic acid 4-thiocarbamoyl-phenyl ester]
inhibition of COX-1 activity (thromboxane B2 synthesis by human blood) (COX-1 [1]): concentration-dependent inhibition of COX-1 activity as compared to the vehicle-treated group; also recorded: significantly better at inhibiting thromboxane B2 synthesis than the ADT-OH equivalent, Compound IV | inhibition of COX-1 activity compared with indomethacin (COX-1 [1]; concentrations of 1 and 3 μM): significantly greater (*p<0.05) inhibition of COX-1 activity than that produced by indomethacin | Percent Incidence of Gastric Damage [2]: 0%

NC(=S)c1ccc(O)cc1 [TBZ, 4-hydroxythiobenzamide, reference compound]
gastric ulcer healing (ulcer area) ([3]; hydrogen sulfide releasing moiety alone, dose not given): did not significantly affect the healing of gastric ulcers as compared to the vehicle-treated group | COX-1 activity (whole blood thromboxane synthesis) (COX-1 [4]; hydrogen sulfide releasing moieties alone, dose not given, FIG. 8): neither of the hydrogen sulfide releasing moieties (ADT-OH and TBZ) significantly affected COX-1 activity | COX-2 activity (exudate PGE2) (COX-2; hydrogen sulfide releasing moieties alone, dose not given): neither of the hydrogen sulfide releasing moieties (ADT-OH and TBZ) significantly affected COX-2 activity | gastric PGE2 synthesis [5]: did not reduce gastric PGE2 synthesis when compared to vehicle

O=C(O)Cc1ccccc1Nc1c(Cl)cccc1Cl [Diclofenac, diclofenac, reference compound]
paw edema (paw volume increase) ([6]; oral 1, 3 or 10 mg/kg, FIG. 9): dose-dependently reduced paw edema | small intestinal damage (erosions/ulcers) [7]: extensive erosions and ulcers in the small intestine | gastric ulcer healing (ulcer area) ([3]; 30 μmol/kg twice-daily orally for 4 days, starting 3 days after ulcer induction, FIG. 13): exhibited similar degrees of healing | hematocrit [8]: profound reduction of hematocrit | change in systolic blood pressure [9]: caused a substantial increase in systolic blood pressure

O=C(Cc1ccccc1Nc1c(Cl)cccc1Cl)Oc1ccc(-c2cc(=S)ss2)cc1 [Compound II, [2-(2,6-dichloro-phenylamino)-phenyl]-acetic acid 4-(5-thioxo-5H-[1,2]dithiol-3-yl)-phenyl ester]
paw edema (paw volume increase) ([6]; oral, dose equimolar to diclofenac at 3 mg/kg, compared with diclofenac, FIGS. 9, 10, 3 mg/kg): reduced paw edema to a greater extent; also recorded: comparable to the effect of diclofenac at a dose of 10 mg/kg | extent of small intestinal damage, less than in rats treated with diclofenac [7]: > 90% | gastric damage score [10]: no gastric damage was seen; also recorded: elicited significantly less gastric damage than diclofenac | hematocrit [8]: no significant effect on hematocrit | inhibition at 4.8 mg/kg (COX-1 [4]; rat, po): > 80% | number of adherent leukocytes compared to the parent NSAID alone [11]: significantly reduced the number of adherent leukocytes per 100 μm vessel length | Number of Adherent Leukocytes [11]: 3.0 ± 0.5 per 100 μm vessel length | change in systolic blood pressure [9]: did not increase systolic blood pressure as compared to the vehicle-treated group; also recorded: significantly lower than that induced by diclofenac and naproxen, respectively | percent incidence of gastric damage compared to the parent NSAID alone [2]: significantly reduced the percent incidence of gastric damage when compared to diclofenac alone | Percent Incidence of Gastric Damage [2]: 0% | concentrations of PGE2 within the pouch (COX-2) (COX-2; oral 30 min before injection, diclofenac 3 mg/kg, Compound II 4.8 mg/kg, Compound XVII 4.1 mg/kg, 1% zymosan, FIG. 7): markedly reduced the concentrations of PGE2 within the pouch | gastric PGE2 synthesis [5]: significantly reduced the amount of gastric PGE2 synthesis; also recorded: near-complete

COc1ccc2c(c1)c(CC(=O)Oc1ccc(-c3cc(=S)ss3)cc1)c(C)n2C(=O)c1ccc(Cl)cc1 [Compound IV, [1-(4-Chloro-benzoyl)-5-methoxy-2-methyl-1-H-indol-3-yl]-acetic acid 4-(5-thioxo-5-H-[1,2]dithiol-3-yl)-phenyl ester]
Number of Adherent Leukocytes [11]: 3.6 ± 0.7 per 100 μm vessel length | inhibition of COX-1 activity (thromboxane B2 synthesis by human blood) (COX-1 [1]): concentration-dependent inhibition of COX-1 activity as compared to the vehicle-treated group | Percent Incidence of Gastric Damage [2]: 20%
